The numbers were not newly measured in patent US12490952B2, “Combined sub-iliopsoas and subpectineal blocks—for hip surgery” (National Guard Health Affairs, priority 2020, dated 2025), which cites them from elsewhere.

SMILES strings stand for the structures.

For this series the following is noted: local anesthetic, general background statement.

As to `CCN(CC)CCOC(=O)c1ccc(N)cc1Cl` [Chloroprocaine], the “duration of action (short-acting / intermediate duration)” value is 45 to 90 min.
